The values that follow come from patent US20240239811A1, “5-(5-(PIPERIDIN-4-YL)THIENO[3,2-C]PYRAZOL-2-YL]INDAZOLE DERIVATIVES AND RELATED COMPOUNDS AS MODULATORS FOR SPLICING NUCLEIC ACIDS AND FOR THE T” (REMIX THERAPEUTICS INC., priority 2020, published 2024).

One may read the IC50 as the concentration that inhibits the measured activity by half. The term AC50 denotes the midpoint of the concentration-response curve, whichever way the signal moves. Read a low AC50 as greater potency.

What all share (format): cell-based
Test [1] relates to HTT mRNA. Kind of test: Splicing assay (RT-qPCR) monitoring HTT splice variants, canonical (CJ) and alternative (AJ) junction. As to conditions: 50% response, A673 or K562 cell line, 24 hours; for IC50: decrease in CJ mRNA; for AC50: increase in AJ mRNA. In outline:
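A673 or K562 cells were treated 24 h with an 11-point 3-fold dilution series (top 10 uM, ≤0.25% DMSO) at 37 °C. HTT canonical- and alternative-junction mRNAs were quantified in lysates by one-step RT-qPCR. Values were normalized to PPIA (A673) or GAPDH/GUSB (K562).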

For test [2], the system named is Target C CJ mRNA. Kind of test: Gene panel canonical junction qPCR assay, Target C. The following applies: Table 6, decrease in CJ mRNA, read-out: Target C IC50 (decrease in CJ mRNA levels). A digest of the protocol: (§1)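 A673 or K562 cells treated 24 h at 37° C with 11-point 3-fold dilutions, top 10 uM, DMSO ≤0.25%. CJ mRNA quantified by RT-qPCR with exon-junction-spanning probeset, ΔΔCt vs housekeeping gene (GAPDH, GUSB or PPIA) and DMSO control. IC50 from 4-parameter fit of percentage CJ decrease.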
In general terms: In qPCR the cycle at which signal appears reflects the starting amount.

Test [3] relates to SMN2 CJ mRNA. The test can be described thus: Gene panel canonical junction qPCR assay, SMN2. The following applies: Table 6, decrease in CJ mRNA, read-out: SMN2 IC50 (decrease in CJ mRNA levels). A digest of the protocol: as §1
The subject of test [4] is HTT CJ mRNA. The test can be described thus: Gene panel canonical junction qPCR assay, HTT. As to conditions: Table 6, decrease in CJ mRNA, read-out: HTT IC50 (decrease in CJ mRNA levels). In outline: as §1

Structures can show the parent of a compound that is named as a salt. Some results are limits rather than exact numbers.

As for `CCNC1CCN(c2cc3sc(-c4cc(F)c5nn(C)cc5c4)nc3s2)CC1` [Compound 137, N-ethyl-1-[2-(7-fluoro-2-methylindazol-5-yl)thieno[2,3-d][1,3]thiazol-5-yl]piperidin-4-amine], the IC50 is 0.1 to 1 µM in test [1], 0.1 to 1 µM in test [2], less than 0.1 µM in test [3] and 0.1 to 1 µM in test [4]. In test [1], this molecule registered an AC50 of 0.1 to 1 µM.
For the molecule `Cc1cn2cc(-n3cc4cc(C5CCNCC5)sc4n3)cc(F)c2n1` [Compound 156], the IC50 was less than 0.1 µM in test [1], 0.1 to 1 µM in test [2], less than 0.1 µM in test [3] and less than 0.1 µM in test [4]. The molecule further showed an AC50 in test [1] of 0.1 to 1 µM.
As for `Cn1cc2cc(-c3nc4sc(N5CCC(NC(C)(C)C)C5)cc4s3)cc(F)c2n1` (centres unmarked) [Compound 143, N-tert-butyl-1-[2-(7-fluoro-2-methylindazol-5-yl)thieno[2,3-d][1,3]thiazol-5-yl]pyrrolidin-3-amine], the IC50 in test [1] was 1 to 10 µM; in test [2], 1 to 10 µM; in test [3], 0.1 to 1 µM; in test [4], 1 to 10 µM. For the same molecule, in test [1], the AC50 was 1 to 10 µM.
Take `CN1CCC2(CC1)CCN2c1cc2sc(-c3cc(F)c4nn(C)cc4c3)nc2s1` [Compound 204, 1-[2-(7-fluoro-2-methylindazol-5-yl)thieno[2,3-d][1,3]thiazol-5-yl]-7-methyl-1,7-diazaspiro [3.5]nonane]: the IC50 in test [1], in test [2], in test [3] and in test [4] was 1 to 10 µM each time. Also, the AC50 in test [1] fell in the range of 1 to 10 µM.
On to `Cc1cn2nc(-c3cc4cn(C5CCNCC5)nc4s3)cc2c(C)n1` [Compound 222], for which the 50% inhibitory concentration (IC50) in test [1] is 1 to 10 µM; in test [2] it was 1 to 10 µM; in test [3] it was less than 0.1 µM; in test [4], 1 to 10 µM. Besides, the AC50 in test [1] lay within 1 to 10 µM.
Take `CN1CCN(c2cc3sc(-c4cc(F)c5nn(C)cc5c4)nc3s2)CC1` [Compound 141, 7-fluoro-2-methyl-5-[5-(4-methylpiperazin-1-yl)thieno[2,3-d][1,3]thiazol-2-yl]indazole]: the IC50 in test [1] was 0.1 to 1 µM; in test [2], 1 to 10 µM; in test [3], less than 0.1 µM; in test [4], 0.1 to 1 µM. The AC50 in test [1] lay within 0.1 to 1 µM.
Turning to `Cc1c(O)c(-c2cc3cn(C4CCNCC4)nc3s2)cc2cn(C)nc12` [Compound 221], the IC50 in test [1], in test [2], in test [3] and in test [4] was more than 10 µM throughout. The same molecule returned an AC50 in test [1] of more than 10 µM.
Turning to `Cn1cc2cc(-c3nc4sc(N5CCC56CCNC6)cc4s3)cc(F)c2n1` (centres unmarked) [Compound 200, 5-(5-{1,6-diazaspiro[3.4]octan-1-yl}thieno[2,3-d][1,3]thiazol-2-yl)-7-fluoro-2-methy-lindazole], the concentration for half-maximal inhibition (IC50) is more than 10 µM in test [1], more than 10 µM in test [2], 1 to 10 µM in test [3] and more than 10 µM in test [4]. The molecule further came in with an AC50 in test [1] of more than 10 µM.
For the molecule `Cn1cc2cc(-c3cc4cn(C5CCNCC5)nc4s3)ccc2n1` [Compound 207], the IC50 in test [1] was 0.1 to 1 µM; in test [2] it was 1 to 10 µM; in test [3] it was less than 0.1 µM; in test [4], 0.1 to 1 µM. Besides, the half-maximal activity concentration (AC50) in test [1] was 0.1 to 1 µM.
In the case of `Cc1cn2nc(-n3cc4sc(C5CCNCC5)cc4n3)cc(C)c2n1` [Compound 101, 4-(2-[2,8-dimethylimidazo[1,2-b]pyridazin-6-yl]thieno[3,2-c]pyrazol-5-yl)piperidine], the IC50 in test [1], in test [2], in test [3] and in test [4] was less than 0.1 µM each time. In test [1], this molecule displayed an AC50 of 0.1 to 1 µM.
Take `CN1CCC(c2cc3sc(-c4cc(F)c5nn(C)cc5c4)nc3s2)CC1` [Compound 151, 7-fluoro-2-methyl-5-[5-(1-methylpiperidin-4-yl)thieno[2,3-d][1,3]thiazol-2-yl]indazole]: the IC50 in test [1], in test [2], in test [3] and in test [4] was less than 0.1 µM throughout. The AC50 in test [1] is less than 0.1 µM.
In the case of `Cn1cc2cc(-c3cc4cn(C5CCOCC5)nc4s3)cc(F)c2n1` [Compound 161, 7-fluoro-2-methyl-5-[2-(oxan-4-yl)thieno[2,3-c]pyrazol-5-yl] indazole], the IC50 in test [1], in test [2], in test [3] and in test [4] was more than 10 µM each time. In test [1], this molecule yielded an AC50 of more than 10 µM.
For the molecule `Cc1cn2nc(-c3cc4cn([C@H]5CCNC[C@@H]5F)nc4s3)cc(C)c2n1` (mixture of isomers) [Compound 212, 5-(2,8-dimethylimidazo[1,2-b]pyridazin-6-yl)-2-((1:1 mixture of 3S,4S and 3R,4R)-3-fluoropiperidin-4-yl)-2H-thieno[2,3-c]pyrazole], the IC50 in test [1] was 1 to 10 µM; in test [2] it was more than 10 µM; in test [3], 0.1 to 1 µM; in test [4], 1 to 10 µM. This molecule also gave an AC50 in test [1] of 1 to 10 µM.
For the molecule `Cc1cn2cc(-n3cc4sc(C5CCNCC5)cc4n3)cc(C)c2n1` [Compound 173], the IC50 was 1 to 10 µM in test [1], more than 10 µM in test [2], 1 to 10 µM in test [3] and 1 to 10 µM in test [4]. Further, the AC50 in test [1] lay in the range of 1 to 10 µM.
For `Cn1cc2cc(-c3cc4cn([C@@H]5CCNC5)nc4s3)cc(F)c2n1` [Compound 160, (R)-5-(7-fluoro-2-methyl-2H-indazol-5-yl)-2-(pyrrolidin-3-yl)-2H-thieno[2,3-c]pyrazole hydrochloride], the IC50 was 1 to 10 µM in test [1], more than 10 µM in test [2], 0.1 to 1 µM in test [3] and 1 to 10 µM in test [4]. The AC50 in test [1] lay in the range of 1 to 10 µM.
With `Cc1cn2cc(-n3cc4cc(C5CCNCC5)sc4n3)cc(Cl)c2n1` [Compound 165], the IC50 in test [1] was less than 0.1 µM; in test [2], 0.1 to 1 µM; in test [3], less than 0.1 µM; in test [4], less than 0.1 µM. For the same molecule, in test [1], the AC50 is less than 0.1 µM.
For `Cn1cc2cc(-c3nc4sc(N5CCNC6(CC6)C5)cc4s3)cc(F)c2n1` [Compound 136, 5-(5-[4,7-diazaspiro[2.5]octan-7-yl]thieno[2,3-d][1,3]thiazol-2-yl)-7-fluoro-2-methylindazole], the IC50 in test [1] is more than 10 µM; in test [2], more than 10 µM; in test [3], 0.1 to 1 µM; in test [4], more than 10 µM. In test [1], the AC50 was more than 10 µM.
As for `Cc1cn2cc(-c3cc4cn(C5CCNCC5)nc4s3)cc(Cl)c2n1` [Compound 226], the IC50 in test [1] is less than 0.1 µM; in test [2], 0.1 to 1 µM; in test [3], less than 0.1 µM; in test [4] it was less than 0.1 µM. The molecule further displayed an AC50 in test [1] of less than 0.1 µM.
In the case of `Cn1cc2ccc(-c3nc4sc(C5CCNCC5)cc4s3)cc2n1` [Compound 127, 2-methyl-6-[5-(piperidin-4-yl)thieno [2,3-d][1,3]thiazol-2-yl]indazole hydrochloride], the IC50 in test [1], in test [2], in test [3] and in test [4] was 1 to 10 µM in each case. In test [1], this molecule registered an AC50 of 1 to 10 µM.
Take `Cn1cc2cc(-c3nc4sc(N5CCNCC5)c(Cl)c4s3)cc(F)c2n1` [Compound 147]: the concentration for half-maximal inhibition (IC50) in test [1] is 0.1 to 1 µM; in test [2], 1 to 10 µM; in test [3], less than 0.1 µM; in test [4], 0.1 to 1 µM. Further, the AC50 in test [1] lay within 0.1 to 1 µM.
As to `Cn1cc2cc(-n3cc4cc(C5CCNCC5)sc4n3)cc(F)c2n1` [Compound 104, 7-fluoro-2-methyl-5-[5-(piperidin-4-yl)thieno[2,3-c]pyrazol-2-yl] indazole], the IC50 in test [1] was less than 0.1 µM; in test [2] it was 0.1 to 1 µM; in test [3] it was less than 0.1 µM; in test [4], less than 0.1 µM. In test [1], this molecule showed an AC50 of 0.1 to 1 µM.
`Cn1cc2cc(-c3nc4sc(N5CCN6CCCC6C5)cc4s3)cc(F)c2n1` (centres unmarked) [Compound 144, 7-fluoro-5-(5-[hexahydro-1H-pyrrolo[1,2-a]pyrazin-2-yl]thieno[2,3-d][1,3]thiazol-2-yl)-2-methylindazole]: the IC50 in test [1] is 1 to 10 µM; in test [2], more than 10 µM; in test [3], less than 0.1 µM; in test [4], 1 to 10 µM. The molecule also came in with a concentration at half-maximal activity (AC50) in test [1] of 0.1 to 1 µM.
With `Cn1cc2cc(-c3cc4cn(C5CCNCC5)nc4s3)c(O)cc2n1` [Compound 209, 2-methyl-5-[2-(piperidin-4-yl)thieno[2,3-c]pyrazol-5-yl]indazol-6-ol], the IC50 fell in the range of 0.1 to 1 µM in test [1], 1 to 10 µM in test [2], 0.1 to 1 µM in test [3] and 0.1 to 1 µM in test [4]. This molecule yielded a concentration at half-maximal activity (AC50) in test [1] of 1 to 10 µM.
In the case of `Cc1cn2cc(-n3cc4cc(C5CCNCC5)sc4n3)cc(C)c2n1` [Compound 155], the IC50 in test [1] is 0.1 to 1 µM; in test [2], 1 to 10 µM; in test [3] it was less than 0.1 µM; in test [4] it was 0.1 to 1 µM. Moreover, the AC50 in test [1] was in the range of 0.1 to 1 µM.
With `Cn1cc2c(O)c(-c3nc4sc(C5CCNCC5)cc4s3)ccc2n1` [Compound 231, 2-methyl-5-[5-(piperidin-4-yl)thieno[2,3-d][1,3]thiazol-2-yl]indazol-4-ol], the IC50 in test [1] was 1 to 10 µM; in test [2], more than 10 µM; in test [3], 0.1 to 1 µM; in test [4] it was 1 to 10 µM. This molecule also came in with an AC50 in test [1] of 1 to 10 µM.
